According to US20260184712A1, “Heterocyclic Compounds as ENT Inhibitors and Compounds for Use in the Treatment of Cancers” (iTeos Belgium SA, priority 2022, published 2026):

How the values were obtained:
human ENT1 = molecular target: T1, human ENT1 (Homo sapiens, UniProt Q99808); experiment: ENT1 binding assay (competition with Sahenta-DY647 on JAR cells); conditions: competition with SAHENTA-DY647 binding; IC50 categorized; read-out: Binding Assay IC50
T1 construct: JAR cells expressing ENT1 were purchased from ATCC; host or cells: JAR cells
T1 sequence (Q99808 1-456): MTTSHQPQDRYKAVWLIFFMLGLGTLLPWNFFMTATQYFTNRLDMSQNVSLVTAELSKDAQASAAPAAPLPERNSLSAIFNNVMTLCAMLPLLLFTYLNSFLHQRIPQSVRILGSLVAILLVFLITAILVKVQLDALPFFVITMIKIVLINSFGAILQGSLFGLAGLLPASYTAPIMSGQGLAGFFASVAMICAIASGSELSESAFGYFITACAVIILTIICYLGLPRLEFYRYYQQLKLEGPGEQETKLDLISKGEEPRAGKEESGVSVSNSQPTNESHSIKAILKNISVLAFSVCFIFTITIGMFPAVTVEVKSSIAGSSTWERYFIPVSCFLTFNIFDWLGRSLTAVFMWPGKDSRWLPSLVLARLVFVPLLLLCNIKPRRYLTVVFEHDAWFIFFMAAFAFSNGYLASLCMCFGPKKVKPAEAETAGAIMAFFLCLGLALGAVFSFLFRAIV
Method in brief: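 Fluorescent-tracer displacement: compound incubated with JAR cells 30 min, 4 °C, before Sahenta-DY647 (100 nM) for another 30 min, 4 °C, in Hepes-buffered HBSS with 0.1% BSA. Bound tracer read at 670 nm after washes; IC50 from four-parameter fit, reported as mean of pIC50 values.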

[1] = system: stimulated primary human T cells; experiment: T cell proliferation assay, Condition A (X-VIVO15); type: cell-based; conditions: Homo sapiens, T-cell, 96 h; Condition A: X-VIVO15 medium; anti-CD3/anti-CD28 beads, ATP, 4 days; CFSE-lo T cells
Experimental: (§1) The goal of this study was to determine the potency of ENT1 inhibitors by measuring the rescued proliferation of stimulated primary human T cells incubated in the presence of 100 uM Adenosine triphosphate (ATP), in baseline conditions (condition A) or in the presence of various proteins known to bind small molecules (condition B).
(§2) Venous blood from healthy volunteers, all of whom signed an informed consent approved by the Ethics Committee (FOR—UIC—BV-050-01-01 ICF_HBS_HD Version 5.0), was obtained by ImmuneHealth (Centre Hospitalier Universitaire Tivoli, La Louviere, Belgium). Mononuclear cells were collected by density gradient centrifugation, using SepMate-50 tubes (StemCell Technologies, Grenoble, France) and Lymphoprep (Stemcell Technologies) according to the manufacturer's instructions. CD3+ T cells were isolated by immunomagnetic negative selection, using the EasySep Human T Cell Isolation Kit (StemCell Technologies) as per the manufacturer's instructions. CD3+ T cells were stored in heat inactivated FBS (hiFBS; Gibco, ThermoFisher Scientific, Merelbeke, Belgium) and 10% DMSO in liquid nitrogen.
(§3) Purified human CD3+ T cells were thawed and washed once with RPMI1640 medium, UltraGlutamine (Lonza, Verviers, Belgium) containing 10% hiFBS. Cells were resuspended in PBS containing 10% hiFBS at 1×10^7 cells/ml. One volume of cells was combined with a matching volume of 2 μM CFSE solution in PBS, mixed well by pipetting, and incubated at room temperature for 5 minutes under rotation and protected from light. Excess CFSE was quenched by addition of PBS containing 10% hiFBS, and the cells were centrifuged (300×rcf, 7 minutes) and resuspended in X-VIVO15. Cells were again centrifuged and resuspended in X-VIVO15 for counting.
(§4) Cells were resuspended at 1.6×10^6 cells/mL in X-VIVO15 medium (Condition A) or X-VIVO15 medium containing 4% (v/v) HSA (Sigma-Aldrich, Diegem, Belgium) and 0.2% (v/v) ai-Acid Glycoprotein (Sigma-Aldrich, Diegem, Belgium) (Condition B).
(§5) […] of cell suspension (2×10^4 cells) was added to wells of sterile flat-bottom 384-well plates. Cells were activated by adding […] of anti-CD3 anti-CD28 coated microbeads (Dynabeads human T-activator CD3/CD28; Life Technologies, Paisley, UK) suspended in X-VIVO15 medium or X-VIVO15 medium containing 4% (v/v) HSA and 0.2% (v/v) ai-Acid Glycoprotein at a ratio of one microbead per two cells. Serial dilutions of the ENT1 inhibitors were conducted in X-VIVO15 medium and […] of the diluent was added to the wells. Cells were mixed by pipetting up and down and pre-incubated for 30 minutes in a 37° C. humidified tissue culture incubator with 5% CO2. After pre-incubation, cells were cultured in the presence or absence of ATP (Sigma-Aldrich) at a final concentration of […]. The final well volume was 50 μl in all cases. Experiments were performed in biological duplicates. Cells were mixed by pipetting up and down and incubated for 4 days in a 37° C. humidified tissue culture incubator with 5% CO2.
(§6) Samples were run on a BD LSR Fortessa FACS machine (BD FACSDiva Software v9.0.1). Data were analyzed using FlowJo (BD, v10.7.1). T cell proliferation was determined by measuring the frequency of ‘CFSE^lo’ (i.e. CFSE-diluted).
(§7) T cell proliferation data were analyzed using FlowJo software (Version 10.6.2). Dead cells and cellular debris were excluded on the basis of forward and side scatter profile and singlet cells were selected for further analysis.
(§8) T cell proliferation was determined based on the percent CFSE^lo total T cells for each condition. The data were plotted on the y-axis against log molar (M) concentration of ENT1 inhibitors on the x-axis in GraphPad Prism (version 9.0.0). IC50 and IC90 values were generated with the ‘log(agonist) vs. response—Find ECanything(F))’ function with F constrained to 50 or 90, respectively. pICF values were generated by taking the −logECF values.

[2] = system: stimulated primary human T cells; experiment: T cell proliferation assay, Condition B (X-VIVO15, 2% HSA and 0.1% AAG); type: cell-based; conditions: Homo sapiens, T-cell, 96 h; Condition B: X-VIVO15 medium containing HSA and α1-Acid Glycoprotein; anti-CD3/anti-CD28 beads, ATP, 4 days; CFSE-lo T cells
Experimental: as §1
Condition B: X-VIVO15, 2% Human Serum Albumin (HSA) and 0.1% α-1-Acid Glycoprotein (AAG)
as §2, §3, §4, §5, §6, §7, §8

| Compound | IC50 (human ENT1) | IC50 [1] | IC50 [2] |
| --- | --- | --- | --- |
| C[C@H]1O[C@@H](n2cnc3c(/C=C/c4ccc([N+](=O)[O-])cc4)ncnc32)[C@H](O)[C@@H]1O [Compound 157] | 1 to 20 nM | < 1 nM | 20 to 500 nM |
| OC[C@H]1O[C@@H](n2c(NC3CCCC3)nc3c(SCc4ccccc4)ncnc32)[C@H](O)[C@@H]1O [Compound 158] | 1 to 20 nM | 1 to 20 nM | 20 to 500 nM |
| O=[N+]([O-])c1ccc(CSc2ncnc3c2ncn3[C@@H]2O[C@H](CF)[C@@H](O)[C@H]2O)cc1 [Compound 159] | 1 to 20 nM | 1 to 20 nM | > 500 nM |
| C[C@H]1O[C@@H](n2cnc3c(OCc4ccc(OC(F)F)cc4)nc(Cl)nc32)[C@H](O)[C@@H]1O [Compound 161] | 1 to 20 nM | 1 to 20 nM | 20 to 500 nM |
| OCCOC[C@H]1O[C@@H](n2cnc3c(OCc4ccc(OC(F)F)cc4)nc(Cl)nc32)[C@H](O)[C@@H]1O [Compound 162] | 1 to 20 nM | 1 to 20 nM | 20 to 500 nM |
| C[C@H]1O[C@@H](n2cnc3c(N(C)Cc4ccc([N+](=O)[O-])cc4)ncnc32)[C@H](O)[C@@H]1O [Compound 177] | 20 to 500 nM | 20 to 500 nM | > 500 nM |
| Cc1nc(-c2ccc(CSc3ncnc4c3ncn4[C@@H]3O[C@H](C)[C@@H](O)[C@H]3O)cc2)no1 [Compound 186] | 20 to 500 nM | 1 to 20 nM | > 500 nM |
| CC(=O)NC[C@H]1O[C@@H](n2cnc3c(SCc4ccc([N+](=O)[O-])cc4)ncnc32)[C@H](O)[C@@H]1O [Compound 189] | 20 to 500 nM | 1 to 20 nM | > 500 nM |
| C[C@H]1O[C@@H](n2cnc3c(OCc4ccc(OC(F)F)cc4)nc(N)nc32)[C@H](O)[C@@H]1O [Compound 190] | 20 to 500 nM | 1 to 20 nM | > 500 nM |
| C[C@H]1O[C@@H](n2cnc3c(N4CCc5cc([N+](=O)[O-])ccc5C4)ncnc32)[C@H](O)[C@@H]1O [Compound 196] | 20 to 500 nM | 1 to 20 nM | > 500 nM |

More lines, main results first:

| IC50 (human ENT1) | Compound | IC50 [1] | IC50 [2] |
| --- | --- | --- | --- |
| 20 to 500 nM | C[C@H]1O[C@@H](n2cnc3c(SCc4ccc(C#N)cc4)ncnc32)[C@H](O)[C@@H]1O [Compound 165] | 1 to 20 nM | > 500 nM |
| 20 to 500 nM | C[C@H]1O[C@@H](n2cnc3c(OCc4ccc(C#N)c(F)c4)ncnc32)[C@H](O)[C@@H]1O [Compound 174] | 1 to 20 nM | > 500 nM |
| 20 to 500 nM | C[C@H]1O[C@@H](n2cnc3c(SCc4ccc(OC(F)F)cc4)ncnc32)[C@H](O)[C@@H]1O [Compound 176] | 1 to 20 nM | > 500 nM |
| 20 to 500 nM | C[C@H]1O[C@@H](n2cnc3c(OCc4ccc(OC(F)(F)F)cc4)ncnc32)[C@H](O)[C@@H]1O [Compound 180] | 1 to 20 nM | > 500 nM |
| 20 to 500 nM | C[C@H]1O[C@@H](n2cnc3c(OCc4ccc(C(F)F)cc4)ncnc32)[C@H](O)[C@@H]1O [Compound 182] | 1 to 20 nM | > 500 nM |
| 20 to 500 nM | C[C@H]1O[C@@H](n2cnc3c(NCc4ccc([N+](=O)[O-])cc4)ncnc32)[C@H](O)[C@@H]1O [Compound 185] | 20 to 500 nM | > 500 nM |
| 20 to 500 nM | C[C@H]1O[C@@H](n2cnc3c(OCc4ccc(Cl)cc4)ncnc32)[C@H](O)[C@@H]1O [Compound 187] | 1 to 20 nM | > 500 nM |
| 20 to 500 nM | C[C@H]1O[C@@H](n2cnc3c(OCCc4ccc(C#N)nn4)ncnc32)[C@H](O)[C@@H]1O [Compound 188] | 1 to 20 nM | > 500 nM |
| 20 to 500 nM | Cc1cc(COc2ncnc3c2ncn3[C@@H]2O[C@H](C)[C@@H](O)[C@H]2O)ccc1[N+](=O)[O-] [Compound 193] | 20 to 500 nM | > 500 nM |
| 20 to 500 nM | NC(=O)COC[C@H]1O[C@@H](n2cnc3c(OCCc4ccc([N+](=O)[O-])cc4)ncnc32)[C@H](O)[C@@H]1O [Compound 199] | 20 to 500 nM | > 500 nM |
| 20 to 500 nM | C[C@H]1O[C@@H](n2cnc3c(OCc4cc(F)c(F)c(F)c4)ncnc32)[C@H](O)[C@@H]1O [Compound 200] | 1 to 20 nM | > 500 nM |
| 20 to 500 nM | O=[N+]([O-])c1ccc(CCOc2ncnc3c2ncn3[C@@H]2O[C@H](COCCO)[C@@H](O)[C@H]2O)cc1 [Compound 203] | 1 to 20 nM | > 500 nM |
